Test results published in ChEMBL document CHEMBL1149006, “Isolation and characterization of a new triterpene from Iris missouriensis” (1986).
Converted amounts (≈) assume the structure as drawn.

System: P388
Assay: Cytotoxicity against mouse P388 cells
Type: functional
Conditions: read-out: ED50 (the source's name)

Row | SMILES | EC50 [µg/mL]
1 | CC[C@H](CC[C@@H](C)[C@H]1CC[C@H]2[C@@H]3[C@@H](O)C=C4C[C@@H](O)CC[C@]4(C)[C@H]3CC[C@]12C)C(C)C | 0.2 (≈ 0.464 µM)
2 | CC[C@H](/C=C/[C@@H](C)[C@H]1CC[C@H]2[C@@H]3[C@@H](O)C=C4C[C@@H](O)CC[C@]4(C)[C@H]3CC[C@]12C)C(C)C | 0.1 (≈ 0.233 µM)
